Measured values as given in patent US7491832B2, “Sulfonate compound and fluorescent probe using the same” (Osaka Industrial Promotion Organization, priority 2003, dated 2009).

What was measured:
[1] = tested on: Chlamydomonas reinhardtii cells; assay: fluorescence response of probe-loaded alga cells stimulated with Cu2+, PQ or MB under light or in the dark; assay type: cell-based; details: FIG. 1; for fluorescence increment (in words) / selectivity for Cu2+ plus light conditions over PQ and MB (in words) / fluorescence response of loaded cells (in words): probe 25 μM; for fluorescence increment (in words): Cu2+ and irradiation with light; for fluorescence response of loaded cells (in words): incubation under irradiation with light in the presence of Cu2+, 60 minutes
Description: Photic stimulation can cause oxidative stress in green algae. Stimulation with Cu^2+ causes intracellular generation of various ROS such as superoxides, hydrogen peroxide, and hydroxyl radicals. Furthermore, when alga cells are activated specifically by paraquat (PQ) or methylene blue (MB), oxidative stress can be caused by the generation of a superoxide or ^1O2. […] In order to load alga cells with the compounds 1a, 1b, and 1c, the derivatives 2a, 2b, and 2c (Scheme 3) as acetylated forms of the compounds 1a, 1b, and 1c were used.
More specifically, first, the compounds 2a, 2b, and 2c respectively were dissolved in DMSO, thus obtaining 10 mM stock solutions of the respective compounds. Next, Chlamydomonas reinhardtii (IAM C-238) cultured by an ordinary method was inoculated into 3 ml of an MBM culture solution. Thereafter, the MBM culture solution was loaded with 7.5 μl of each of the stock solutions of the compounds 2a, 2b, and 2c in the dark at 25° C. for 30 minutes. Thus, probe-loaded cell suspensions were prepared. Furthermore, a 96-well tissue culture plate was provided, and 50 μl of a MBM solution containing the indicated concentration of CuCl2, PQ, or […] was added to the plate. The probe-loaded cell suspension (50 μl) was inoculated to the plate and then incubated under irradiation with light or in the dark. After 60 minutes, fluorescence in the cells was measured using a fluorescence measuring device (trade name “CytoFluor II multiwell fluorescence plate reader”, PerSeptive Biosystems, USA). For the measurement, an excitation filter was set at 485±20 nm and an emission filter was set at 530±25 nm.
FIG. 1 contains graphs showing the correlation between a concentration and a fluorescence increment when the fluorescence response was measured by loading Chlamydomonas reinhardtii cells with the compound 2a, 2b, or 2c (25 μM) or DCFH-DA (50 μM) in the dark at 25° C. for 30 minutes and incubating them in 96-well microplates under irradiation with light or in the dark in the presence of Cu^2+, PQ, or MB for 60 minutes. In FIG. 1, an empty circle indicates the result obtained when the incubation was carried out under irradiation with light and a solid circle indicates the result obtained when the incubation was carried out in the dark.

[2] = microplate assay of the acetylated forms as hydrogen peroxide-detecting probe (esterase requirement); details: microplate assay similar to that of compounds 1
[3] = 96-well microplate assay, fluorescence response to H2O2; details: for response to H2O2 (in words): 96-well microplate assay; for detection limit for H2O2: 150 μl probe solution, 25° C., 60 minutes, RSD n=8; for detection limit for H2O2 / Fluorescence Intensity (RFU), H2O2: HEPES pH 7.4; for Fluorescence Intensity (RFU), H2O2: value minus intensity in the absence of H2O2, probe 1a 25 μM, 1b and 1c 5 μM; for slope of the linear calibration curve: H2O2 calibration, detection limit to 92.3 nmol; for upper end of the linear calibration range: linear from the detection limit upward
Procedure: In this assay, a DMSO solution of the compound 1a (10 mM), a DMSO solution of the compound 1b (2 mM), and a DMSO solution of the compound 1c (2 mM) were provided first and then these solutions were diluted 400-fold with a HEPES buffer solution (pH 7.4, 10 mM). Thus, probe solutions of the respective compounds were prepared. In the respective probe solutions, the concentration of the compound 1a was 25 μM, the concentration of the compound 1b was 5 μM, and the concentration of the compound 1c was 5 μM. Then, 150 μl of each of the probe solutions was allowed to react with H2O2 water (0.92 mM, 10 μl) at 25° C. for 60 minutes. The detection limits of the compounds 1a, 1b, and 1c were 46.0 (RSD, n=8; 1.2%), 23.1 (0.5%), and 4.6 (1.0%) pmol, respectively, which are all acceptable for cellular level detection. With regard to each of the compounds 1a, 1b, and 1c, a linear calibration curve with a correlation coefficient of at least 0.999 was obtained when the detected value was in the range from the detection limit to 92.3 nmol.
(§1) The fluorescence response to H2O2 achieved by each of the thus-obtained compounds 1a, 1b, and 1c was compared with that to HO. (a hydroxyl radical) and that to O2^−. (a superoxide). As a source of HO., the Fenton reaction between H2O2 (1 mM, 10 μl) and Fe^2+ (5 mM, 10 μl) was used. On the other hand, O2^−. was generated by causing an enzyme reaction between hypoxanthine (HPX) (1 mM, 10 μl) and xanthine oxidase (XO) (0.26 U/ml, 10 μl).
(§2) In Table 1, fluorescence responses observed after reacting the compounds 1a, 1b, and 1c with H2O2, HO., or O2^−. were compared with each other. Numbers in Table 1 represent the fluorescence intensity (RFU). Note here that the RFU is a value obtained by subtracting a fluorescence intensity obtained in the absence of H2O2 or HPX from the measured value.

[4] = microplate assay, fluorescence response to HO. from the Fenton reaction (H2O2 + Fe2+); details: for Fluorescence Intensity (RFU), H2O2 + Fe^2+: H2O2 (1 mM, 10 μl) + Fe2+ (5 mM, 10 μl) as HO. source, blank subtracted
Procedure: as §1, §2

[5] = microplate assay, fluorescence response in the HPX-XO system (O2-. source), with or without catalase or SOD; details: for Fluorescence Intensity (RFU), HPX + XO + catalase: HPX + XO with catalase (5000 U/ml, 10 μl); for Fluorescence Intensity (RFU), HPX + XO + catalase / Fluorescence Intensity (RFU), HPX + XO + SOD: blank subtracted; for Fluorescence Intensity (RFU), HPX + XO + SOD: HPX + XO with superoxide dismutase (10 μl); for fluorescence response in the HPX-XO system on addition of catalase (in words): catalase 5000 U/ml; for fluorescence response in the HPX-XO system on addition of catalase (in words) / fluorescence response in the HPX-XO system in the presence of SOD (in words): 10 μl; for Fluorescence Intensity (RFU), HPX + XO: hypoxanthine (1 mM, 10 μl) + xanthine oxidase (0.26 U/ml, 10 μl), blank without HPX subtracted; for fluorescence response in the HPX-XO system in the presence of SOD (in words): superoxide dismutase
Procedure: as §1, §2

requirement of esterase to serve as hydrogen peroxide-detecting probe (in words) [2] | Fluorescence Intensity (RFU), HPX + XO + catalase [5] [RFU] | Fluorescence Intensity (RFU), HPX + XO + SOD [5] [RFU] | fluorescence response in the HPX-XO system on addition of catalase (in words) [5] | Fluorescence Intensity (RFU), HPX + XO [5] [RFU] | fluorescence response in the HPX-XO system in the presence of SOD (in words) [5] | SMILES | detection of ROS on Cu2+ stimulation (in words) ([1]; DCFH-DA 50 μM) | detection of oxidative stress caused by PQ and MB (in words) ([1]; DCFH-DA 50 μM) | fluorescence increment (in words) [1] | selectivity for Cu2+ plus light conditions over PQ and MB (in words) [1] | fluorescence response of loaded cells (in words) [1] | response to H2O2 (in words) [3] | detection limit for H2O2 [3] [pmol] | Fluorescence Intensity (RFU), H2O2 [3] [RFU] | slope of the linear calibration curve [3] [au/nmol] | upper end of the linear calibration range [3] [nmol] | response to HO. compared with that to H2O2 (in words) [4] | Fluorescence Intensity (RFU), H2O2 + Fe^2+ [4] [RFU]
– | – | – | – | – | – | CC(=O)Oc1cc2c(cc1Cl)C(c1ccccc1C(=O)O)c1cc(Cl)c(OC(C)=O)cc1O2 [DCFH-DA, reference compound] | detected ROS generated by the Cu^2+ stimulation | detected the oxidative stress caused by PQ and MB effectively | – | – | – | – | – | – | – | – | – | –
esterase was necessary | – | – | – | – | – | CC(=O)Oc1cc2c(cc1F)C1(OC(=O)c3ccccc31)c1cc(F)c(OS(=O)(=O)c3c(F)c(F)c(F)c(F)c3F)cc1O2 (stereo not drawn) [Compound 2c] | – | – | great fluorescence increments | high selectivity | exhibited fluorescence response in a stimulation concentration-dependent manner | – | – | – | – | – | – | –
esterase was necessary | – | – | – | – | – | CC(=O)Oc1cc2c(cc1Cl)C1(OC(=O)c3ccccc31)c1cc(Cl)c(OS(=O)(=O)c3c(F)c(F)c(F)c(F)c3F)cc1O2 (stereo not drawn) [Compound 2b] | – | – | – | – | exhibited fluorescence response in a stimulation concentration-dependent manner | – | – | – | – | – | – | –
– | −44 | 3340 | eliminated completely | 3580 | maintained or increased | O=C(O)c1ccccc1-c1c2cc(F)c(=O)cc-2oc2cc(OS(=O)(=O)c3c(F)c(F)c(F)c(F)c3F)c(F)cc12 [Compound 1c] | – | – | – | – | – | H2O2 concentration-dependent response | 4.6 | 4375 | 591 | 92.3 | much smaller than those to H2O2 | 184
– | −51 | 1733 | eliminated completely | 1733 | maintained or increased | O=C(O)c1ccccc1-c1c2cc(Cl)c(=O)cc-2oc2cc(OS(=O)(=O)c3c(F)c(F)c(F)c(F)c3F)c(Cl)cc12 [Compound 1b] | – | – | – | – | – | H2O2 concentration-dependent response | 23.1 | 2193 | 215 | 92.3 | much smaller than those to H2O2 | 195
– | −49 | 899 | eliminated completely | 566 | maintained or increased | O=C(O)c1ccccc1-c1c2ccc(=O)cc-2oc2cc(OS(=O)(=O)c3c(F)c(F)c(F)c(F)c3F)ccc12 [Compound 1a] | – | – | – | – | – | H2O2 concentration-dependent response | 46.0 | 1150 | 172 | 92.3 | much smaller than those to H2O2 | 28
esterase was necessary | – | – | – | – | – | CC(=O)Oc1ccc2c(c1)Oc1cc(OS(=O)(=O)c3c(F)c(F)c(F)c(F)c3F)ccc1C21OC(=O)c2ccccc21 (stereo not drawn) [Compound 2a] | – | – | great fluorescence increments | high selectivity | exhibited fluorescence response in a stimulation concentration-dependent manner | – | – | – | – | – | – | –
